Laboratory results published in the supplement of paper PMC10307832.

Assays:
Experiment in all cases: relative viability (nuclei count vs DMSO), 5 days (fraction); higher = more cells survive
SGI-1776 + OSI-027 = compound: CN1CCC(CNc2ccc3ncc(-c4cccc(OC(F)(F)F)c4)n3n2)CC1 [SGI-1776] + COc1cccc2cc(-c3nc([C@H]4CC[C@H](C(=O)O)CC4)n4ncnc(N)c34)[nH]c12 [OSI-027] (partner 0.5 µM)
Outline: (§1)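 Cells from lung cancer lines were seeded into 1536-well plates and, one day later, dosed by pin tool. Treatments were either a single drug or a fixed dose of an anchor drug with five library-drug doses (not always all listed) in √10 steps. After 5 days, nuclei were stained in a one-step fixation (final 0.05% Triton X-100, 1% formaldehyde, 1 ug/ml Hoechst) and counted on 4× images, and relative viability is the treated-to-vehicle nuclei ratio, as the median of duplicate plates.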

SGI-1776 + Olaparib = compound: CN1CCC(CNc2ccc3ncc(-c4cccc(OC(F)(F)F)c4)n3n2)CC1 [SGI-1776] + O=C(c1cc(Cc2n[nH]c(=O)c3ccccc23)ccc1F)N1CCN(C(=O)C2CC2)CC1 [Olaparib] (partner 8 µM)
Outline: as §1

Entinostat + Pictilisib = compound: Nc1ccccc1NC(=O)c1ccc(CNC(=O)OCc2cccnc2)cc1 [Entinostat] + CS(=O)(=O)N1CCN(Cc2cc3nc(-c4cccc5[nH]ncc45)nc(N4CCOCC4)c3s2)CC1 [Pictilisib] (partner 1 µM)
Outline: as §1

Entinostat + Olaparib = compound: Nc1ccccc1NC(=O)c1ccc(CNC(=O)OCc2cccnc2)cc1 [Entinostat] + O=C(c1cc(Cc2n[nH]c(=O)c3ccccc23)ccc1F)N1CCN(C(=O)C2CC2)CC1 [Olaparib] (partner 8 µM)
Outline: as §1

Cell Line | relative viability (SGI-1776 + OSI-027; first compound 0.08 µM) | relative viability (SGI-1776 + OSI-027; first compound 0.8 µM) | relative viability (SGI-1776 + OSI-027; first compound 2.53 µM) | relative viability (SGI-1776 + OSI-027; first compound 8 µM) | relative viability (SGI-1776 + Olaparib; first compound 0.08 µM) | relative viability (SGI-1776 + Olaparib; first compound 0.8 µM) | relative viability (SGI-1776 + Olaparib; first compound 2.53 µM) | relative viability (SGI-1776 + Olaparib; first compound 8 µM) | relative viability (Entinostat + Pictilisib; first compound 0.02 µM) | relative viability (Entinostat + Pictilisib; first compound 0.06325 µM) | relative viability (Entinostat + Pictilisib; first compound 0.2 µM) | relative viability (Entinostat + Pictilisib; first compound 0.6325 µM) | relative viability (Entinostat + Pictilisib; first compound 2 µM) | relative viability (Entinostat + Olaparib; first compound 0.02 µM) | relative viability (Entinostat + Olaparib; first compound 0.06325 µM) | relative viability (Entinostat + Olaparib; first compound 0.2 µM) | relative viability (Entinostat + Olaparib; first compound 0.6325 µM) | relative viability (Entinostat + Olaparib; first compound 2 µM)
NCI-H23 | 0.676 | 0.547 | 0.724 | 0.437 | 0.32 | 0.331 | 0.299 | 0.332 | 0.496 | 0.576 | 0.499 | 0.404 | 0.296 | 0.282 | 0.242 | 0.237 | 0.179 | 0.12
SK-LU-1 | 0.397 | 0.328 | 0.335 | 0.166 | 0.514 | 0.5 | 0.452 | 0.5 | 0.503 | 0.493 | 0.622 | 0.38 | 0.333 | 0.469 | 0.497 | 0.394 | 0.313 | 0.288
NCI-H727 | 0.543 | 0.627 | 0.615 | 0.438 | 0.69 | 0.639 | 0.659 | 0.679 | 0.357 | 0.355 | 0.689 | 0.2 | 0.219 | 0.73 | 0.735 | 0.642 | 0.677 | 0.532
HCC-366 | 0.837 | 0.866 | 1.02 | 0.667 | 0.347 | 0.449 | 0.379 | 0.294 | 0.163 | 0.232 | 0.168 | 0.194 | 0.082 | 0.343 | 0.311 | 0.212 | 0.132 | 0.0516
SW 1573 | 0.673 | 0.715 | 0.631 | 0.391 | 0.381 | 0.428 | 0.475 | 0.297 | 0.518 | 0.506 | 0.451 | 0.495 | 0.344 | 0.415 | 0.563 | 0.582 | 0.468 | 0.261
HCC-44 | 0.672 | 0.493 | 0.407 | 0.28 | 0.998 | 0.973 | 0.89 | 0.984 | 0.641 | 0.644 | 0.392 | 0.176 | 0.417 | 0.957 | 0.906 | 0.93 | 0.875 | 0.7
A-427 | 0.543 | 0.481 | 0.479 | 0.357 | 0.724 | 0.723 | 0.739 | 0.569 | 0.67 | 0.837 | 0.65 | 0.757 | 0.589 | 0.721 | 0.717 | 0.678 | 0.554 | 0.553
NCI-H441 | 0.58 | 0.559 | 0.743 | 0.388 | 0.569 | 0.521 | 0.608 | 0.491 | 0.369 | 0.429 | 0.402 | 0.208 | 0.172 | 0.625 | 0.467 | 0.317 | 0.18 | 0.113
ABC-1 | 0.401 | 0.552 | 0.472 | 0.407 | 0.78 | 0.874 | 0.5 | 0.842 | 0.668 | 1.07 | 0.7 | 0.452 | 0.279 | 0.508 | 1.11 | 0.758 | 0.993 | 1.07
LK-2 | 0.247 | 0.216 | 0.201 | 0.159 | 0.783 | 0.768 | 0.717 | 0.579 | 0.62 | 0.486 | 0.529 | 0.518 | 0.285 | 0.857 | 0.904 | 0.584 | 0.475 | 0.239
NCI-H2085 | 0.745 | 0.828 | 0.853 | 0.44 | 0.758 | 0.797 | 0.926 | 0.794 | 0.477 | 0.388 | 0.378 | 0.382 | 0.403 | 0.755 | 0.726 | 0.717 | 0.592 | 0.378
NCI-H647 | 0.712 | 0.613 | 0.559 | 0.301 | 0.67 | 0.484 | 0.438 | 0.206 | 0.508 | 0.755 | 0.469 | 0.314 | 0.093 | 0.522 | 0.333 | 0.426 | 0.0646 | 0.0559
SK-MES-1 | 0.673 | 0.585 | 0.649 | 0.314 | 0.772 | 0.744 | 0.664 | 0.347 | 0.356 | 0.465 | 0.506 | 0.376 | 0.277 | 0.576 | 0.646 | 0.801 | 0.596 | 0.467
NCI-H1793 | 0.258 | 0.253 | 0.31 | 0.223 | 0.87 | 0.99 | 0.864 | 0.8 | 0.317 | 0.333 | 0.285 | 0.235 | 0.219 | 0.929 | 0.959 | 0.743 | 0.681 | 0.236
LC-2-ad | 0.918 | 0.806 | 0.973 | 0.548 | 0.755 | 0.776 | 0.756 | 0.696 | 0.44 | 0.5 | 0.431 | 0.126 | 0.124 | 0.785 | 0.635 | 0.633 | 0.527 | 0.3
NCI-H3122 | 0.988 | 0.967 | 0.926 | 0.862 | 0.688 | 0.697 | 0.62 | 0.647 | 0.648 | 0.663 | 0.678 | 0.441 | 0.298 | 0.653 | 0.622 | 0.604 | 0.517 | 0.452
LCLC-97TM1 | 0.597 | 0.487 | 0.59 | 0.487 | 0.421 | 0.421 | 0.419 | 0.439 | 0.196 | 0.193 | 0.166 | 0.104 | 0.122 | 0.476 | 0.402 | 0.41 | 0.32 | 0.364
NCI-H520 | 0.255 | 0.263 | 0.249 | 0.223 | 0.36 | 0.318 | 0.386 | 0.203 | 0.327 | 0.284 | 0.32 | 0.282 | 0.275 | 0.336 | 0.346 | 0.272 | 0.237 | 0.149
